Patent publication EP0680964B1, “PYRROLO [3,2-e]INDOLE DERIVATIVES, PROCESS FOR THE PREPARATION THEREOF AND THEIR USE” (UNIVERSIDAD DE SANTIAGO DE COMPOSTELA, priority 1993, dated 1995)
Converted amounts (≈) assume the structure as drawn.

How the values were obtained:
[1] = test system: P388 leukemic tumor model; test: P388 antitumoral model in vivo (survival time, i.p. treatment); set-up: species or system mice; conditions: for %C/T: average survival of tested group/average survival of controls
Experimental: Normally, 1x10^6 cells in ascitic fluid was implanted i.p. in CD2F1 mice. Treatment with the agent tested i.p. began one day after the tumor had been implanted and it is continued daily up to a total of 5 injections for synthetic products and of 9 injections for raw natural products. The results are expressed as percentage of the control survival time.
CDFl mice weighing 18-22 gr (+/- 3 gr) were implanted on day 0 of the test period o.1 ml. of a dilution of 1.0x10^7 tumor cells coming from DBA/2N mice used for the propagation of the tumor.
On day 1 of the test period the animals were grouped at random in groups of six animals.Each group is weighed and the average weight is written down. Each compound to be tested in diluted in 4 levels of dosis for each multidose test as of the determination of the highest nontoxic dose (v.g. 400 mg/kg; 100 mg/kg; 10 mg/kg.)
Administration of the test compounds is started on day 1 using volumns of 1/2 drug injected i.p. Injections are given on days 1 to 9 of the test period, unless it is indicated to the contrary. The animals are weighed on day 5, which is the one which in this system is considered the day of toxicity. Toxicity in this test system is defined as: • A. 34 % deaths up to day 5 - acute toxicity • B. C/T<85% - chronic toxicity • C. A negative average of the weight change of the animals> 4 g up to day 5 - chronic toxicity
The data obtained upon testing the compounds in vivo in comparison with the P388 leukemic tumor model in mice are shown in the following table: […]

[2] = mice, therapeutic doses; cited from earlier work
HT-29 = test: In vitro test, IC50 on HT-29; assay type: cell-based; conditions: Homo sapiens; HT-29, in vitro
Text: (§1) On the other hand, the results of the tests in vitro carried out on compounds (IIIa) and (IIIb) were the following: […]

MEL-28 = test: In vitro test, IC50 on MEL-28; assay type: cell-based; conditions: Homo sapiens, SK-MEL-28; MEL-28, in vitro
Text: as §1

A-549 = test: In vitro test, IC50 on A-549; assay type: cell-based; conditions: Homo sapiens, A549; A-549, in vitro
Text: as §1

P-388 = test: In vitro test, IC50 on P-388; assay type: cell-based; conditions: Mus musculus, P388; P-388, in vitro
Text: as §1

P388 model = conditions: cited from earlier work

COC(=O)c1cn(C)c2c(O)cc3c(c12)C(CCl)CN3C(=O)c1cc2cc(OC)c(OC)c(OC)c2[nH]1 (centres unmarked) [Compound (V), methyl 6-(5,6,7-trimethoxy-1H-indole-2-carbonyl)-8-chloromethyl-4-hydroxy-3-methyl-3,6,7,8-tetrahydropyrrololo[3,2-e]indole-1-carboxylate]
%C/T ([1]; inject. dose 0.050 mg/kg): 133.9% | Significant activity (class of %C/T) ([1]; inject. dose 0.050 mg/kg): ** (Significant activity (strong): C/T > =175%)

COC(=O)c1cn(C)c2c(O)cc3c(c12)C(CCl)CN3C(=O)c1cc2cc(NC(=O)c3cc4ccccc4o3)ccc2[nH]1 (centres unmarked) [Compound (III), methyl 6-{5-[(benzofuran-2-ylcarbonyl)-amino]1H-indole-2-carbonyl}-8-chloromethyl-4-hydroxy-3-methyl-3,6,7,8,tetrahydropyrrolo[3,2-e]indole-1-carboxylate]
%C/T ([1]; inject. dose 0.500 mg/kg): >391.3%

Cc1c[nH]c2c1[C@@]13C[C@@H]1CN(C(=O)c1cc4cc(NC(=O)c5cc6ccccc6o5)ccc4[nH]1)C3=CC2=O [Adocelesine]
delayed lethality [2]: without provoking delayed lethality

COC(=O)c1cc2c(n1C)C(=O)C=C1N(C(=O)c3cc4cc(OC)c(OC)c(OC)c4[nH]3)CC3CC123 (centres unmarked) [(VI), methyl 2-(5,6,7-trimethoxy-1H-indole-2-carbonyl)-5-methyl-4-oxo-1,2,4,5,8a-hexahydrocyclopropa[c]pyrrolo[3,2-e]indole-7-carboxylate]
%C/T ([1]; inject. dose 0.500 mg/kg): 210.9% | Significant activity (class of %C/T) ([1]; inject. dose 0.500 mg/kg): ** (Significant activity (strong): C/T > =175%)

COC(=O)c1cn(C)c2c(OC(C)=O)cc3c(c12)C(CCl)CN3C(=O)c1cc2cc(NC(=O)c3cc4ccccc4o3)ccc2[nH]1 (centres unmarked) [IIIa, methyl 4-acetoxy-6-{5-[(benzofuran-2-yl-carbonyl)-amino]1H-indole-2-carbonyl}-8-chloromethyl-3-methyl-3,6,7,8-tetrahydropyrrolo[3,2-e]indole-1-carboxylate]
IC50 (HT-29): 0.25 ng/mL (≈ 0.391 nM) | IC50 (MEL-28): 0.25 ng/mL (≈ 0.391 nM) | IC50 (A-549): 0.05 ng/mL (≈ 0.0782 nM) | IC50 (P-388): 0.01 ng/mL (≈ 0.0156 nM)

methyl 2-[5-[(benzofuran-2-ylcarbonyl) amino]-1H-indol-2-carbonyl]-5-methyl-4-oxo,1,2,4,5,8,8,a-hexahydrocyclopropa[c]pyrrolo[3,2-e]indole-7-carboxylate [(IV)]
%C/T ([1]; inject. dose 0.300 mg/kg): 251.1% | Significant activity (class of %C/T) ([1]; inject. dose 0.300 mg/kg): ** (Significant activity (strong): C/T > =175%)

COc1c(O)c2c(c3cc(C(=O)N4CCc5c4c(O)c(OC)c4[nH]c(C(=O)N6CC7CC78C6=CC(=O)c6[nH]cc(C)c68)cc54)[nH]c13)CCN2C(N)=O (centres unmarked) [CC-1065]
delayed lethality [2]: producing delayed deaths in mice at therapeutic doses

O=C(Nc1ccc2[nH]c(C(=O)N3CC4CC45C3=CC(=O)c3ccccc35)cc2c1)c1cc2ccccc2[nH]1 (centres unmarked) [CBI-Ind2]
results in the P388 model in vivo (P388 model): very good results
